Test results reported in US8835456B1, “NS5A inhibitors useful for treating HCV” (Achillion Pharmaceuticals, Inc., priority 2011, dated 2014).

The compounds below were run on Hepatitis C replicon (assay: HCV replicon replication assay (NPT level by captured ELISA)). Conditions: Hepatitis C virus, Huh-7, 72 h.
Assay type: cell-based
Description: Compounds claimed herein are tested for the ability to inhibit viral replication of the Hepatitis C replicon in cultured cells in which the HCV replicon construct has been incorporated. The HCV replicon system was described by Bartenschlager, et. al (Science, 285, pp. 110-113 (1999)). The replicon system is predictive of in vivo anti-HCV activity; compounds that are active in humans uniformly evidence activity in the replicon assay.
In this assay HCV replicon containing cells are treated with different concentrations of the test compound to ascertain the ability of the test compound to suppress replication of the HCV replicon. As a positive control, HCV replicon-containing cells are treated with different concentrations of interferon alpha, a known inhibitor of HCV replication. The replicon assay system includes Neomycin Phosphotransferase (NPT) as a component of the replicon itself in order to detect the transcription of replicon gene products in the host cell. Cells in which the HCV replicon is actively replicating have high levels of NPT; the level of NPT is proportional to HCV replication. […] The NPT level of each sample is measured using a captured ELISA.
A protocol for testing compounds for the ability to inhibit viral replication of the Hepatitis C replicon cultured cells in which the replicon construct has been incorporated, follows.
The HCV genome consists of a single ORF that encodes a 3000 amino acid polyprotein. The ORF is flanked on the 5′ side by an untranslated region that serves as an internal ribosome entry site (IRES) and at the 3′ side by a highly conserved sequence necessary for viral replication (3′-NTR). The structural proteins, necessary for viral infection, are located near the 5′ end of the ORF. The non-structural proteins, designated NS2 to NS5B comprise the remainder of the ORF. […]
HCV replicon-containing cells are examined under a microscope to ensure that cells growing well. […] The cells are counted. […]
In the case of COC(=O)N[C@H](C(=O)N1C2CCC(C2)[C@H]1c1nc(-c2ccc(-c3ccc(-c4c[nH]c([C@@H]5CC6CCCCC6N5C(=O)[C@@H](NC(=O)OC)C(C)C)n4)cc3)nc2)c[nH]1)C(C)C (stereo partly drawn) [Compound 14], the EC50 is reported as less than 10 nM.
COC(=O)N[C@H](C(=O)N1C2CCC(C2)[C@H]1c1nc(-c2ccc(-c3ccc(-c4c[nH]c([C@@H]5CC6CCCCC6N5C(=O)[C@@H](NC(=O)OC)C(C)C)n4)cc3)s2)c[nH]1)C(C)C (stereo partly drawn) [Compound 15] gave an EC50 of less than 10 nM.
COC(=O)N[C@H](C(=O)N1C2CCC(C2)[C@H]1c1nc(-c2ccc(-c3ccc(-c4c[nH]c([C@@H]5CC6CCCCC6N5C(=O)[C@@H](NC(=O)OC)C(C)C)n4)cc3)cc2)c[nH]1)C(C)C (stereo partly drawn) [Compound 10] showed an EC50 of less than 10 nM.
